Source: publication PMC4657098, “A Review of the Updated Pharmacophore for the Alpha 5 GABA(A) Benzodiazepine Receptor Model” (International Journal of Medicinal Chemistry, 2015)
Read-outs that look alike come from different tables or passages of the source.

Tests used:
[1] = system: Bz BS of GABA(A) receptors; settings: cited from earlier work
[2] = target: T1, α1β3γ2 GABAA/BzR (Homo sapiens, UniProt P14867+P18507); assay: Competition binding to HEK cell membranes, α1β3γ2; parameters: expressed in transfected cells
[3] = target: T2, α2β3γ2 GABAA/BzR (Homo sapiens, UniProt P18507+P47869); assay: Competition binding to HEK cell membranes, α2β3γ2; parameters: expressed in transfected cells
[4] = target: T3, α3β3γ2 GABAA/BzR (Homo sapiens, UniProt P18507+P34903); assay: Competition binding to HEK cell membranes, α3β3γ2; parameters: expressed in transfected cells
[5] = target: T4, α5β3γ2 GABAA/BzR (Homo sapiens, UniProt P18507+P31644); assay: Competition binding to HEK cell membranes, α5β3γ2; parameters: expressed in transfected cells
[6] = target: T5, α6β3γ2 GABAA/BzR (Homo sapiens, UniProt P18507+Q16445); assay: Competition binding to HEK cell membranes, α6β3γ2; parameters: expressed in transfected cells
[7] = target: T6, α4β3γ2 GABAA/BzR (Homo sapiens, UniProt P18507+P48169); settings: cited from earlier work
T6 construct: expressed in transfected cells; host or cells: LTK cells (given for XLi-093 only)

[8] = target: T1, α1β3γ2 GABAA/BzR; parameters: expressed in transfected cells; host or cells: LTK cells (given for XLi-093 only); settings: cited from earlier work
[9] = target: T2, α2β3γ2 GABAA/BzR; parameters: expressed in transfected cells; host or cells: LTK cells (given for XLi-093 only); settings: cited from earlier work
[10] = target: T3, α3β3γ2 GABAA/BzR; parameters: expressed in transfected cells; host or cells: LTK cells (given for XLi-093 only); settings: cited from earlier work
[11] = target: T4, α5β3γ2 GABAA/BzR; parameters: expressed in transfected cells; host or cells: LTK cells (given for XLi-093 only); settings: read-out: Affinity Ki α5; cited from earlier work
[12] = target: T5, α6β3γ2 GABAA/BzR; parameters: expressed in transfected cells; host or cells: LTK cells (given for XLi-093 only); settings: cited from earlier work
[13] = system: alcohol preferring and HAD rats; settings: cited from earlier work
[14] = target: T6, α4β3γ2 GABAA/BzR; assay: biochemical; type: binding; settings: Figure 17; read-out: Binding data Ki α4

Row | SMILES | Ki ([7]; read-out: Affinity Ki α4) [nM] | Ki ([8]; read-out: Affinity Ki α1) [nM] | Ki ([9]; read-out: Affinity Ki α2) [nM] | Ki ([10]; read-out: Affinity Ki α3) [nM] | Ki [11] [nM] | Ki ([12]; read-out: Affinity Ki α6) [nM] | further results
1 | CCCOc1ccc2[nH]c3cnc(C(=O)OCC)c(COC)c3c2c1 [6-PBC, 6-(propyloxy)-4-(methoxymethyl)-β-carboline-3-carboxylic acid ethyl ester] |  |  |  |  |  |  | modulation ([1]; Supplement Table 1): partial agonist; Ki ([2]; Ki α1): 0.49 nM; Ki ([3]; Ki α2): 1.21 nM; Ki ([4]; Ki α3): 2.2 nM; Ki ([5]; Ki α5): 2.39 nM; Ki ([6]; Ki α6): 1340 nM
2 | CC(C)(C)OC(=O)c1cc2c(cn1)[nH]c1ccc(I)cc12 [29(iodo-βCCt)] | > 4000 | 14.4 | 44.9 | 123 | 65.3 | > 4000 | 
3 | CCOC(=O)c1cc2c(cn1)[nH]c1ccc(I)cc12 [31(iodo-βCCE)] | 1000 | 4.8 | 31 | 34 | 286 | 1000 | 
4 | O=C(OC(C(F)(F)F)C(F)(F)F)c1cc2c(cn1)[nH]c1ccc(I)cc12 [32(WY-B-08)] | 3000 | 78 | 301 | 131 | 681 | 3000 | 
5 | O=C(OCC(F)(F)F)c1cc2c(cn1)[nH]c1ccc(-c3ccco3)cc12 [34(WYB27-1)] | 3000 | 26 | 143 | 117 | 127 | 2000 | 
6 | O=C(OCC(F)(F)F)c1cc2c(cn1)[nH]c1ccc(-c3ccccc3)cc12 [38(WYB29-2)] | 2000 |  | 137 | 125 | 299 | 2000 | 
7 | CC(C)(C)OC(=O)c1cc2c(cn1)[nH]c1ccc(C#Cc3ccc4[nH]c5cnc(C(=O)OC(C)(C)C)cc5c4c3)cc12 [42(WY-S-2)] | > 300 | 30 | 124 | 100 | > 300 | > 4000 | Ki ([2]; binding to α1 subtypes): 30 nM
8 | CC(C)(C)OC(=O)c1cc2c(cn1)[nH]c1ccc(C#CC#Cc3ccc4[nH]c5cnc(C(=O)OC(C)(C)C)cc5c4c3)cc12 [43(WY-S-6)] | 5000 | 120 | 1060 | 3940 | 5000 | 5000 | Ki ([2]; binding to α1 subtypes): 120 nM
9 | CC(C)(C)OC(=O)c1cc2c(cn1)[nH]c1ccccc12 [BCCt] |  |  |  |  |  |  | Ki ([7]; Figure 33, αxβ3γ2, read-out: Affinity Ki α4): 1000 nM; rate at which rats self-administrated alcohol ([13]; alcohol preferring and HAD rats): reduce the rate; sucrose self-administration [13]: little or no effect; modulation ([1]; Supplement Table 1): antagonist; pharmacological properties compared with classical benzodiazepine receptor antagonists [1]: near GABA neutral antagonists; Ki ([2]; Ki α1): 0.03 nM; Ki ([3]; Ki α2): 0.0419 nM; Ki ([4]; Ki α3): 0.035 nM; Ki ([5]; Ki α5): 69.3 nM; Ki ([5]; read-out: Ki α5): 111 nM; Ki ([6]; Ki α6): 5000 nM; Ki ([12]; Figure 33, αxβ3γ2, read-out: Affinity Ki α6): > 5000 nM
10 | CCOC(=O)c1ncn2c1CN=C(c1ccccc1)c1cc(-c3ccccc3)ccc1-2 [DM-I-81 (9)] |  |  |  |  |  |  | Ki [14]: > 2000 nM; Ki ([7]; Figure 4, read-out: Ki α4): > 2000 nM; Ki ([2]; Figure 17, read-out: Binding data Ki α1): > 2000 nM; Ki ([3]; Figure 17, read-out: Binding data Ki α2): > 2000 nM; Ki ([4]; Figure 17, read-out: Binding data Ki α3): > 2000 nM; Ki ([5]; Figure 17, read-out: Binding data Ki α5): 176 nM; Ki ([6]; Figure 17, read-out: Binding data Ki α6): > 2000 nM; Ki ([8]; Figure 4, read-out: Ki α1): > 2000 nM; Ki ([9]; Figure 4, read-out: Ki α2): > 2000 nM; Ki ([10]; Figure 4, read-out: Ki α3): > 2000 nM; Ki ([12]; Figure 4, read-out: Ki α6): > 2000 nM
11 | CCc1c(C(=O)OC)ncc2[nH]c3cc(OC)c(OC)cc3c12 [DMCM, reference compound] |  |  |  |  |  |  | modulation [1]: inverse agonist; Ki ([2]; read-out: Ki α1): 5.69 nM; Ki ([3]; read-out: Ki α2): 8.29 nM; Ki ([4]; read-out: Ki α3): 4 nM; Ki ([5]; read-out: Ki α5): 1.04 nM; Ki ([6]; read-out: Ki α6): 134 nM
